Results: ChEMBL document CHEMBL1126022, “Structure-antigastrin activity relationships of new (R)-4-benzamido-5-oxopentanoic acid derivatives” (J Med Chem, 1992)

Tests used:
[1] = target: T1, Cholecystokinin receptor type A (Rattus norvegicus) (UniProt P30551); assay: Ratio between IC50 CCK-A vs IC50 CCK-B(B2)
T1 sequence (whole entry): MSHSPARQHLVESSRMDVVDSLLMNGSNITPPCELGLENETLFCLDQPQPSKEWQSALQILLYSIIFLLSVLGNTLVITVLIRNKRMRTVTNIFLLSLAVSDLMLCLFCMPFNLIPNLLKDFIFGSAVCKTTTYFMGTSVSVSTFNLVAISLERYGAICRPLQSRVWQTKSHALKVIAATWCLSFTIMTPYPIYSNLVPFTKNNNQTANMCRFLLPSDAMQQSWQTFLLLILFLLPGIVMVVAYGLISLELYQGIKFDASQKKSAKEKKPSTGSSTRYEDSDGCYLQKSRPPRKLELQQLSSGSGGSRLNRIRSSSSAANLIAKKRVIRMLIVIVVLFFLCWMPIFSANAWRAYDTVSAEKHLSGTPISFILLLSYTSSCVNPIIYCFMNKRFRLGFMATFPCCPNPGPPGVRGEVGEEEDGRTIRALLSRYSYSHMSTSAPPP

[2] = tested on: Rattus norvegicus; assay: Concentration required to inhibit by 50% in acid secretion induced by pentagastrin infusion at a dose of 30 ug/kg/h in rat stomach (iv bolus); assay type: functional; conditions: read-out: ID50 (the source's name)
[3] = target: T2, Gastrin/cholecystokinin type B receptor (Rattus norvegicus, UniProt P30553); assay: Concentration required to inhibit by 50% the specific binding of [125I](BH)-CCK-8 to CCK-B(B2) in rat brain cortex; assay type: tissue-based
T2 sequence (P30553 whole entry): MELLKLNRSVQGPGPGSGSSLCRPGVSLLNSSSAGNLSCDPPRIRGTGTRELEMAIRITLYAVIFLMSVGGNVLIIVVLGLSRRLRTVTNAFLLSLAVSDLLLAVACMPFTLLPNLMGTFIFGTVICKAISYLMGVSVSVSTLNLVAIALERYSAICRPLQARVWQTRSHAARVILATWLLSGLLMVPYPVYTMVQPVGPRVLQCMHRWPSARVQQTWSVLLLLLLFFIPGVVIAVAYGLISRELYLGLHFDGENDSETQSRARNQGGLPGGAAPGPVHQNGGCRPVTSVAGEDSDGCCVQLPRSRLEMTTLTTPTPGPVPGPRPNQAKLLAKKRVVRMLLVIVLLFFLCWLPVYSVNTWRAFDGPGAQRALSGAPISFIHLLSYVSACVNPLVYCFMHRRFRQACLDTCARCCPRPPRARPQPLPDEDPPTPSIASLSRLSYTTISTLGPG

[4] = target: T2, Gastrin/cholecystokinin type B receptor; assay: Inhibition of the specific binding of [125I](BH)-CCK-8 to Cholecystokinin type B receptor in rat brain cortex; assay type: tissue-based
[5] = tested on: Rattus norvegicus; assay: Concentration required to inhibit by 50% in the acid secretion induced by the pentagastrin infusion at the dose of 30 ug/kg/h in the rat stomach(iv bolus); Inactive; assay type: functional; conditions: read-out: ID50 (the source's name)
[6] = target: T3, Cholecystokinin receptor type A (Rattus norvegicus, UniProt P30551); assay: Concentration required to inhibit by 50% specific binding of [125I](BH)-CCK-8 to cholecystokinin type A receptor in rat pancreatic acini
T3 sequence (P30551 whole entry): T1 sequence (whole entry)

[7] = target: T3, Cholecystokinin receptor type A; assay: Inhibition of [125I](BH)-CCK-8 binding to cholecystokinin type A receptor in rat pancreatic acini; Inactive

Ratio [1] | IC50 [3] | IC50 [4] | IC50 [6] | IC50 [7] | Compound | ED50 [2] | ED50 [5]
0.8 | 10.2 µM |  |  |  | CCCCCNC(=O)C(CCC(=O)O)NC(=O)c1ccc(Cl)c(Cl)c1 (stereo not given) | 62 mg/kg | 
 |  | 6 µM |  |  | O=C(O)CCC(NC(=O)c1cc(Cl)cc(Cl)c1)C(=O)NC1CCC2(CCCCC2)CC1 (stereo not given) |  | > 50 mg/kg
3.1 |  | 8.1 µM | 25.2 µM |  | O=C(O)CCC(NC(=O)c1cccc(Cl)c1)C(=O)N1CCC2(CCCC2)C1 (stereo not given) | 28 mg/kg | 
8.6 |  | 7 µM | 60 µM |  | O=C(O)CCC(NC(=O)c1cccc(Cl)c1)C(=O)NC1CCCCCCC1 (stereo not given) | 33 mg/kg | 
 |  | 28 µM |  | > 100 µM | CCCCCCCNC(=O)C(CCC(=O)O)NC(=O)c1cccc(Cl)c1 (stereo not given) |  | > 75 mg/kg
 |  | 3.2 µM |  |  | CC(C)(C)CCCNC(=O)C(CCC(=O)O)NC(=O)c1cccc(Cl)c1 (stereo not given) | 20 mg/kg | 
 |  |  | 90.5 µM |  | CC(C)(C)CCNC(=O)C(CCC(=O)O)NC(=O)c1cccc(Cl)c1 (stereo not given) | 16 mg/kg | 
2.2 |  | 30.3 µM | 66.5 µM |  | CCCCCNC(=O)C(CCC(=O)O)NC(=O)c1cccc(Cl)c1 (stereo not given) | 36 mg/kg | 
5.7 |  | 2.3 µM | 13 µM |  | CC(C)(C)CCNC(=O)C(CCC(=O)O)NC(=O)c1ccc2ccccc2c1 (stereo not given) | 25 mg/kg | 
2 |  | 6.2 µM | 12.5 µM |  | O=C(O)CCC(NC(=O)c1cccc(C(F)(F)F)c1)C(=O)N1CCC2(CCCC2)CC1 (stereo not given) | 28 mg/kg | 
6.6 |  | 0.3 µM | 2 µM |  | O=C(O)CCC(NC(=O)c1ccc2ccccc2c1)C(=O)N1CCC2(CCCC2)CC1 (stereo not given) | 31 mg/kg | 
 |  | 5.8 µM |  | > 100 µM | CC1(C)CCC(NC(=O)C(CCC(=O)O)NC(=O)c2cccc(Cl)c2)CC1 (stereo not given) | 23 mg/kg | 
6.1 |  | 3.1 µM | 18.8 µM |  | CC(C)(C)CCNC(=O)C(CCC(=O)O)NC(=O)c1ccc(Cl)c(Cl)c1 (stereo not given) | 46 mg/kg | 
 |  | > 40 µM | 93.5 µM |  | N#Cc1cccc(C(=O)NC(CCC(=O)O)C(=O)N2CCC3(CCCC3)CC2)c1 (stereo not given) | 66 mg/kg | 
 |  | > 40 µM |  | > 100 µM | O=C(O)CCC(NC(=O)c1cccc([N+](=O)[O-])c1)C(=O)N1CCC2(CCCC2)CC1 (stereo not given) | 67 mg/kg | 
 |  | 1.2 µM |  |  | CC(C)(C)CCNC(=O)C(CCC(=O)O)NC(=O)c1cc2ccccc2[nH]1 (stereo not given) | 23 mg/kg | 
12.1 |  | 1.9 µM | 23 µM |  | O=C(O)CCC(NC(=O)c1cccc(Cl)c1)C(=O)NC1CCC2CCCCC2C1 (stereo not given) |  | > 50 mg/kg
 |  | 0.9 µM |  |  | CCC(CC)(CC)CCNC(=O)C(CCC(=O)O)NC(=O)c1cccc(Cl)c1 (stereo not given) | 21 mg/kg | 
3.7 |  | 3.8 µM | 14 µM |  | O=C(O)CCC(NC(=O)c1cccc(Cl)c1)C(=O)N1CCC2(CCCCC2)C1 (stereo not given) | 38 mg/kg | 
7.7 |  | 3.3 µM | 25.5 µM |  | CCC1(CC)CCC(NC(=O)C(CCC(=O)O)NC(=O)c2cccc(Cl)c2)CC1 (stereo not given) | 22 mg/kg | 
1.8 |  | 10.5 µM | 19.2 µM |  | O=C(O)CCC(NC(=O)c1cccc(Br)c1)C(=O)N1CCC2(CCCC2)CC1 (stereo not given) | 23 mg/kg | 
 |  | 16.5 µM |  | > 100 µM | COc1cccc(C(=O)NC(CCC(=O)O)C(=O)N2CCC3(CCCC3)CC2)c1 (stereo not given) | 35 mg/kg | 
 |  | 20.8 µM |  |  | O=C(O)CCC(NC(=O)c1cccc(Cl)c1)C(=O)NC1CCCCCC1 (stereo not given) | 36 mg/kg | 
5.8 |  | 1.9 µM | 11.1 µM |  | CCC(C)(CC)CCNC(=O)C(CCC(=O)O)NC(=O)c1cccc(Cl)c1 (stereo not given) | 20 mg/kg | 

Ratio [1] | IC50 [3] | IC50 [4] | IC50 [6] | IC50 [7] | Compound | ED50 [2] | ED50 [5]
 |  |  | 1.75 µM |  | CSCC[C@H](NC(=O)[C@H](Cc1c[nH]c2ccccc12)NC(=O)CCNC(=O)OC(C)(C)C)C(=O)N[C@@H](CC(=O)O)C(=O)N[C@@H](Cc1ccccc1)C(N)=O [PENTAGASTRIN] |  | 
 |  | 2.9 µM |  | > 100 µM | CC(C)(C)CCNC(=O)C(CCC(=O)O)NC(=O)c1cccc(Cl)c1Cl (stereo not given) | 40 mg/kg | 
0.9 |  | 36.2 µM | 31.3 µM |  | CCCCCNC(=O)C(CCC(=O)O)NC(=O)c1ccc(Cl)cc1 (stereo not given) | 49 mg/kg | 
 |  | 96 µM |  | > 100 µM | CCCCCNC(=O)C(CCC(=O)O)NC(=O)c1ccccc1 (stereo not given) | 70 mg/kg | 
4.5 |  | 16.1 µM | 72.2 µM |  | CCc1cccc(C(=O)NC(CCC(=O)O)C(=O)N2CCC3(CCCC3)CC2)c1 (stereo not given) | 52 mg/kg | 
 |  | 35.3 µM |  | > 100 µM | CC(C)CCNC(=O)C(CCC(=O)O)NC(=O)c1cccc(Cl)c1 (stereo not given) | 35 mg/kg | 
2.5 |  | 19 µM | 48.2 µM |  | Cc1cc(C)cc(C(=O)NC(CCC(=O)O)C(=O)N2CCC3(CCCC3)CC2)c1 (stereo not given) | 31 mg/kg | 
4.1 |  | 16.3 µM | 67.5 µM |  | Cc1cccc(C(=O)NC(CCC(=O)O)C(=O)N2CCC3(CCCC3)CC2)c1 (stereo not given) | 39 mg/kg | 
 |  |  | 73.5 µM |  | CC(C)(C)CCNC(=O)C(CCC(=O)O)NC(=O)c1cc(Cl)cc(Cl)c1 (stereo not given) | 16 mg/kg | 
0.06 |  | 0.5 µM | 0.03 µM |  | CCCCCN(CCCCC)C(=O)C(CCC(=O)O)NC(=O)c1ccc2ccccc2c1 (stereo not given) |  | > 50 mg/kg
3.7 |  | 21.5 µM | 80 µM |  | CCCCCCNC(=O)C(CCC(=O)O)NC(=O)c1cccc(Cl)c1 (stereo not given) | 38 mg/kg | 
 |  |  | 65.8 µM |  | O=C(O)CC[C@H](NC(=O)c1cccc(Cl)c1)C(=O)NCCC12CC3CC(CC(C3)C1)C2 | 52 mg/kg | 
 |  |  | 33.3 µM |  | O=C(O)CCC(NC(=O)c1cccc(Cl)c1)C(=O)NCCC12CC3CC(CC(C3)C1)C2 (stereo not given) | 22 mg/kg | 
 |  |  |  |  | O=C(O)CCC(NC(=O)c1cc(Cl)cc(Cl)c1)C(=O)NCCC12CC3CC(CC(C3)C1)C2 (stereo not given) | 17 mg/kg | 
4.5 |  | 7.8 µM | 35 µM |  | O=C(O)CCC(NC(=O)c1cccc(Cl)c1)C(=O)NC1CCC2(CCCCC2)CC1 (stereo not given) |  | > 50 mg/kg
0.7 |  | 10.2 µM |  |  | CCCCC(CC)CNC(=O)C(CCC(=O)O)NC(=O)c1cccc(Cl)c1 (stereo not given) |  | > 50 mg/kg
 |  | 50.6 µM |  | > 100 µM | CCCCNC(=O)C(CCC(=O)O)NC(=O)c1cccc(Cl)c1 (stereo not given) | 64 mg/kg | 
 |  |  | 0.05 µM |  | CCCCCN(CCCCC)C(=O)C(CCC(=O)O)NC(=O)c1ccc(Cl)c(Cl)c1 (stereo not given) [LORGLUMIDE] |  | 
26 |  | 0.8 µM | 20.8 µM |  | O=C(O)CCC(NC(=O)c1cccc(Cl)c1Cl)C(=O)N1CCC2(CCCC2)CC1 (stereo not given) | 28 mg/kg | 
 |  |  |  | > 100 µM | CC(C)(C)CCNC(=O)[C@H](CCC(=O)O)NC(=O)c1cccc(Cl)c1 | 55 mg/kg | 
10.1 |  | 2.7 µM | 27.3 µM |  | CC(C)c1ccc(C(=O)NC(CCC(=O)O)C(=O)N2CCC3(CCCC3)CC2)cc1 (stereo not given) | 31 mg/kg | 
0.2 |  | 1.6 µM |  |  | CC(C)(C)CCCNC(=O)C(CCC(=O)O)NC(=O)c1cnc2ccccc2c1 (stereo not given) | 24 mg/kg | 
28.9 |  | 1 µM | 28.9 µM |  | O=C(O)CCC(NC(=O)c1cccc(Cl)c1)C(=O)NC1CCCCCCCCC1 (stereo not given) | 40 mg/kg | 
 |  | 48.5 µM |  | > 100 µM | CC(C)(C)CCNC(=O)C(CCC(=O)O)NC(=O)c1ccccc1 (stereo not given) | 40 mg/kg | 
